# Source: patent US10071095B2, “1,2,4-triazolo [4,3-A] pyridine derivatives and their use for the treatment of neurological and psychiatric disorders” (JANSSEN PHARMACEUTICALS, INC., priority 2009, dated 2018)
# Biological target: T1, human mGluR2 receptor (Homo sapiens, UniProt Q14416)
# T1 construct: expressed in transfected cells; host or cells: CHO cells
# Experiment: [35S]GTPγS binding assay, positive allosteric modulation (GTPγS-PAM) in presence of EC20 glutamate
# Format: biochemical
# Details: in presence of glutamate at EC20; average pEC50 if more experiments; ‡ means tested once
# Description: [^35S]GTPγS Binding Assay
# The [^35S]GTPγS binding assay is a functional membrane-based assay used to study G-protein coupled receptor (GPCR) function whereby incorporation of a non-hydrolysable form of GTP, [^35S]GTPγS (guanosine 5′-triphosphate, labelled with […] ^35S), is measured. The G-protein α subunit catalyzes the exchange of guanosine 5′-diphosphate (GDP) by guanosine triphosphate (GTP) and on activation of the GPCR by an agonist, [^35S]GTPγS, becomes incorporated and cannot be cleaved to continue the exchange cycle (Harper (1998) Current Protocols in Pharmacology 2.6.1-10, John Wiley & Sons, Inc.). […] Here we describe the use of the [^35S]GTPγS binding assay using membranes from cells transfected with the human mGluR2 receptor and adapted from Schaffhauser et al. ((2003) Molecular Pharmacology 4:798-810) for the detection of the positive allosteric modulation (PAM) properties of the compounds of this invention.
# CHO-cells were cultured to pre-confluence and stimulated with 5 mM butyrate for 24 h, prior to washing in PBS, and then collected by scraping in homogenisation buffer (50 mM Tris-HCl buffer, pH 7.4, 4° C.). Cell lysates were homogenized briefly using an ultra-turrax homogenizer. The homogenate was centrifuged at 16,000 RPM (Sorvall RC-5C plus rotor SS-34) for 10 minutes and the supernatant discarded. The pellet was resuspended in 5 mM Tris-HCl, pH 7.4 and centrifuged again (18,000 RPM, 20 min, 4° C.). The final pellet was resuspended in 50 mM Tris-HCl, pH 7.4 and stored at −80° C. in appropriate aliquots before use. Protein concentration was determined by the Bradford method (Bio-Rad, USA) with bovine serum albumin as standard.
# Measurement of mGluR2 positive allosteric modulatory activity of test compounds was performed as follows. Test compounds and glutamate were diluted in assay buffer containing 10 mM HEPES acid, 10 mM HEPES salt, pH 7.4, 100 mM NaCl, 3 mM MgCl2 and 10 μM GDP. Human mGlu2 receptor-containing membranes were thawed on ice and diluted in assay buffer supplemented with 14 μg/ml saponin. Membranes were pre-incubated with compound alone or together with a predefined (˜EC20) concentration of glutamate (PAM assay) for 30 min at 30° C. After addition of [^35S]GTPγS (f.c. 0.1 nM) microplates were shaken briefly and further incubated to allow [^35S]GTPγS incorporation on activation (30 minutes, 30° C.). Final assay mixtures contained 7 μg of membrane protein in 10 mM HEPES acid, 10 mM HEPES salt, pH 7.4, 100 mM NaCl, 3 mM MgCl2, 10 µM GDP and 10 μg/ml saponin. Total reaction volume was 200 μl. Reactions were terminated by rapid filtration through Unifilter-96 GF/B filter plates (Packard, Meriden, Conn.) using a 96-well Packard filtermate harvester. Filters were washed 6 times with ice-cold 10 mM NaH2PO4/10 mM Na2HPO4, pH 7.4. Filters were then air-dried, and 40 μl of liquid scintillation cocktail (Microscint-O) was added to each well. Membrane-bound radioactivity was counted in a Microplate Scintillation and Luminescence Counter from Packard.
# The concentration-response curves of representative compounds of the present invention-obtained in the presence of EC20 of mGluR2 agonist glutamate to determine positive allosteric modulation (PAM)—were generated using the Lexis software interface (developed at J&J).
# T1 sequence (Q14416 19-872): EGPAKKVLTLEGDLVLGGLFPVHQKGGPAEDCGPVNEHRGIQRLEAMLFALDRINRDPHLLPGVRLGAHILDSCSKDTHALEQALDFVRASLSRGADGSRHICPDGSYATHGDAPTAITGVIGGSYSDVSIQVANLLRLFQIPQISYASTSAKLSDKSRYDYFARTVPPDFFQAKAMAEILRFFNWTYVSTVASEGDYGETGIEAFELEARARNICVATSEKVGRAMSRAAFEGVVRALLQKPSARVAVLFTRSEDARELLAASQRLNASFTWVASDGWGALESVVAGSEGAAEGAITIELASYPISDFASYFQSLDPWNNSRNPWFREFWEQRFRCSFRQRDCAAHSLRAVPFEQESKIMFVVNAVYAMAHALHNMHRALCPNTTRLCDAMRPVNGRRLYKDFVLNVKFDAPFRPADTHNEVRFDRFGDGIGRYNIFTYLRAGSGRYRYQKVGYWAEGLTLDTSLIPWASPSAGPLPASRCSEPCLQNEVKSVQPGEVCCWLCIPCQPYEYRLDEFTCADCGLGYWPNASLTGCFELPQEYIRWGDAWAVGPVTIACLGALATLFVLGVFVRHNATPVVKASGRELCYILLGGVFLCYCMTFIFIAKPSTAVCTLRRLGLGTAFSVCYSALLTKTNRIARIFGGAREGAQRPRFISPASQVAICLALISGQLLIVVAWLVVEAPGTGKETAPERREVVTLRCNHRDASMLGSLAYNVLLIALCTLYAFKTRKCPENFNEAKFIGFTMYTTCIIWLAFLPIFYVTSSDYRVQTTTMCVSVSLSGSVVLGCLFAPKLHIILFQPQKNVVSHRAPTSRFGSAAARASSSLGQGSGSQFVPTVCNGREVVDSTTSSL
row,GTPγS - hR2 PAM pEC50,Structure (SMILES)
1,7.05,FC(F)(F)c1c(N2CC3C(C2)C3c2ccccc2)ccn2c(CC3CC3)nnc12 (racemic) [compound 75]
2,6.85,FC(F)(F)Cc1nnc2c(Cl)c(N3CC4C(C3)C4c3ccccc3)ccn12 (racemic) [compound 81]
3,6.42‡,CCc1nnc2c(C)c(N3CC4C(C3)C4c3ccccc3)ccn12 (racemic) [compound 335]
4,7.42‡,CCCCc1nnc2c(C(F)(F)F)c(N3CC4C(C3)C4c3ccccc3)ccn12 (racemic) [compound 338]
5,7.06,"CC1CN(c2ccn3c(CC4CC4)nnc3c2Cl)CCC1c1ccccc1 (single isomer, unassigned) [compound 208]"
6,7.44,"CC1CN(c2ccn3c(CC4CC4)nnc3c2Cl)CCC1c1ccccc1 (single isomer, unassigned) [compound 211]"
7,8.08,"CC1CN(c2ccn3c(CC4CC4)nnc3c2C(F)(F)F)CCC1c1ccccc1 (single isomer, unassigned) [compound 212]"
8,7.41,"FC(F)(F)c1c(N2CCC(F)(c3ccccc3)CC2)ccn2c(CC3CC3)nnc12 [compound 2, 3-Cyclopropylmethyl-7-(4-fluoro-4-phenyl-1-piperidinyl)-8-(trifluoromethyl)-1,2,4-triazolo[4,3-a]pyridine]"
9,7.62,"CCCCc1nnc2c(C(F)(F)F)c(N3CCC(c4ccccc4)CC3)ccn12 [compound 4, 3-Butyl-7-(4-phenyl-1-piperidinyl)-8-trifluoromethyl-1,2,4-triazolo[4,3-a]pyridine]"
10,6.16,"CCc1nnc2c(C#N)c(N3CCC(c4ccccc4)CC3)ccn12 [compound 10, 3-ethyl-7-(4-phenyl-1-piperidinyl)-1,2,4-triazolo[4,3-a]pyridine-8-carbonitrile]"
11,7.13,"N#Cc1c(N2CCC(c3ccccc3)CC2)ccn2c(CC3CC3)nnc12 [compound 13, 3-(cyclopropylmethyl)-7-(4-phenyl-1-piperidinyl)-1,2,4-triazolo[4,3-a]pyridine-8-carbonitrile]"
12,7.25,N#Cc1c(N2CCC(c3ccccc3)CC2)ccn2c(CC(F)(F)F)nnc12 [compound 20]
13,6.61,CCc1nnc2c(C#N)c(N3CCC(c4cccc(F)c4OC)CC3)ccn12 [compound 21]
14,7.26,FC(F)(F)Cc1nnc2c(Cl)c(N3CCC(c4ccccc4)CC3)ccn12 [compound 22]
15,6.98,CCCc1nnc2c(C#N)c(N3CCC(c4cccc(F)c4OC)CC3)ccn12 [compound 23]
16,6.33‡,COCc1nnc2c(C#N)c(N3CCC(c4ccccc4)CC3)ccn12 [compound 24]

# Same assay, conditions: in presence of glutamate at EC20; average pEC50 if more experiments; ‡ means tested once; read-out: GTPγS - hR2 PAM pEC50 (converted)
row,EC50 [nM],Structure (SMILES)
1,132,"CCOCc1nnc2c(Cl)c(N3CCC(c4ccccc4)CC3)ccn12 [compound 5, 8-Chloro-3-(ethoxymethyl)-7-(4-phenyl-1-piperidinyl)-1,2,4-triazolo[4,3-a]pyridine]"
2,39.8,"CC(C)(O)c1ccccc1C1CCN(c2ccn3c(CC4CC4)nnc3c2Cl)CC1 [compound 7, 2-[1-[8-Chloro-3-(cyclopropylmethyl)-1,2,4-triazolo[4,3-a]pyridin-7-yl]-4-piperidinyl]-α,α-dimethyl-benzenemethanol]"
3,269,"CC(C)Cc1nnc2c(Cl)c(N3CCC(c4ccccc4)CC3)ccn12 [compound 9, 8-Chloro-3-(2-methylpropyl)-7-(4-phenyl-1-piperidinyl)-1,2,4-triazolo[4,3-a]pyridine]"
4,46.8,"N#Cc1c(N2CCC(c3ccccc3)CC2)ccn2c(CN3CCC(c4ccccc4)CC3)nnc12 [compound 12, 7-(4-phenyl-1-piperidinyl)-3-[(4-phenyl-1-piperidinyl)methyl]-1,2,4triazolo[4,3-a]pyridine-8-carbonitrile]"
5,427,"N#Cc1c(N2CCC(c3ccccc3)CC2)ccn2c(C3CCC3)nnc12 [compound 14, 3-Cyclobutyl-7-(4-phenyl-1-piperidinyl)-1,2,4-triazolo[4,3-a]pyridine-8-carbonitrile]"
